PubChem BioAssay (NCI)
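96-well plates; 48 h exposure; 5 concentrations. Endpoints by linear interpolation between flanking doses. Not reached: highest tested concentration assigned. GI50: concentration for 50% inhibition of growth. TGI is the concentration that stops growth completely.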

Tests used:
Experiment in all cases: NCI-60 cell line screen, 48 h
MOLT-4 leukemia = test system: MOLT-4 leukemia
NCI-H460 lung = test system: NCI-H460 lung
DU-145 prostate = test system: DU-145 prostate
SK-MEL-28 melanoma = test system: SK-MEL-28 melanoma
ACHN renal = test system: ACHN renal
SK-MEL-2 melanoma = test system: SK-MEL-2 melanoma
BT-549 breast = test system: BT-549 breast
SNB-19 CNS = test system: SNB-19 CNS
NCI-H522 lung = test system: NCI-H522 lung
SR leukemia = test system: SR leukemia
SK-OV-3 ovarian = test system: SK-OV-3 ovarian
UACC-257 melanoma = test system: UACC-257 melanoma
RXF 393 renal = test system: RXF 393 renal
SF-295 CNS = test system: SF-295 CNS
SN12C renal = test system: SN12C renal
HOP-92 NSCLC = test system: HOP-92 NSCLC
RPMI-8226 leukemia = test system: RPMI-8226 leukemia
M14 melanoma = test system: M14 melanoma
NCI/ADR-RES ovarian = test system: NCI/ADR-RES ovarian
EKVX NSCLC = test system: EKVX NSCLC
OVCAR-8 ovarian = test system: OVCAR-8 ovarian
A498 renal = test system: A498 renal
CCRF-CEM leukemia = test system: CCRF-CEM leukemia
OVCAR-4 ovarian = test system: OVCAR-4 ovarian
HCT-116 colon = test system: HCT-116 colon
OVCAR-5 ovarian = test system: OVCAR-5 ovarian
U251 CNS = test system: U251 CNS
MCF7 breast = test system: MCF7 breast
IGROV1 ovarian = test system: IGROV1 ovarian

## CCCCCc1ccc(S(=O)(=O)Nc2cc(-c3csc(N(C)C(C)=O)n3)ccc2N2CCN(C)CC2)cc1
MOLT-4 leukemia
  GI50: 1.4 µM
  TGI: > 35.5 µM
NCI-H460 lung
  TGI: 11.1 µM
DU-145 prostate
  GI50: 3.93 µM
  TGI: > 35.5 µM
SK-MEL-28 melanoma
  GI50: 6.76 µM
  TGI: 19.7 µM
ACHN renal
  GI50: 4.66 µM
  TGI: > 35.5 µM
SK-MEL-2 melanoma
  GI50: 8.64 µM
  TGI: 30.2 µM
BT-549 breast
  GI50: 9.72 µM
  TGI: > 35.5 µM
SNB-19 CNS
  GI50: 10.9 µM
  TGI: > 35.5 µM
NCI-H522 lung
  GI50: 5.51 µM
  TGI: 14.7 µM
SR leukemia
  GI50: 1.02 µM
  TGI: 3.6 µM
SK-OV-3 ovarian
  GI50: 7.29 µM
  TGI: 17.5 µM
UACC-257 melanoma
  GI50: 6.59 µM
  TGI: 26.9 µM
RXF 393 renal
  GI50: 2.11 µM
  TGI: 17.9 µM
SF-295 CNS
  GI50: 0.754 µM
  TGI: 2.12 µM
SN12C renal
  GI50: 3.73 µM
  TGI: 28.1 µM
HOP-92 NSCLC
  GI50: 1.71 µM
  TGI: 15.4 µM
RPMI-8226 leukemia
  GI50: 1.32 µM
  TGI: > 35.5 µM
M14 melanoma
  GI50: 3.93 µM
  TGI: > 35.5 µM
NCI/ADR-RES ovarian
  GI50: 5.75 µM
  TGI: > 35.5 µM
EKVX NSCLC
  GI50: 15.2 µM
  TGI: > 35.5 µM
OVCAR-8 ovarian
  GI50: 10.2 µM
  TGI: > 35.5 µM
A498 renal
  GI50: 9.21 µM
  TGI: > 35.5 µM
CCRF-CEM leukemia
  GI50: 1.02 µM
  TGI: 3.71 µM
OVCAR-4 ovarian
  GI50: 2.22 µM
  TGI: 29.8 µM
HCT-116 colon
  GI50: 1.07 µM
  TGI: 3.67 µM
OVCAR-5 ovarian
  GI50: 16.5 µM
  TGI: > 35.5 µM
U251 CNS
  GI50: 7.43 µM
  TGI: > 35.5 µM
MCF7 breast
  GI50: 0.983 µM
  TGI: 4.09 µM
IGROV1 ovarian
  GI50: 9.77 µM
